US8283299B2, “Skin and hand cleaning compositions with hydrophilic emollients” (Evonik Stockhausen GmbH, priority 2007, dated 2012)

Key:
[1] = cited from earlier work
[2] = Determination of the HLB value; format: physicochemical; conditions: 5% strength dispersion/solution in water, visual comparison with emulsifiers of known HLB
Description: The HLB value is determined by preparing a 5% strength dispersion/solution of the substance to be tested, here the hydrophilic emollient, in water, and determining the solubility in water. The assessment takes place visually: clouding, solubility, degree of dispersion. The HLB value is ascertained through comparison with solutions of emulsifiers whose HLB value is known.

Row | Substance | HLB value according to manufacturer [1] | HLB value (ascertained) [2]
1 | PEG-7 glyceryl cocoate [Glycerox HE] | HLB: 11 | –
2 | polyglyceryl-4 caprate [TEGOSOFT PC 41] | – | HLB: 16
3 | polyglyceryl-3 caprate [TEGOSOFT PC 31] | – | HLB: 14
